Test [1] has as its target T1, human GST-CLK1 (Homo sapiens, UniProt P49759).
T1 construct: purified human GST-CLK1 (129-end, SignalChem) enzyme; purchased SignalChem
Put plainly: GST-CLK1 enzyme inhibition, ADP-Glo kinase assay. The format is biochemical. The following applies: ATP 10 μM, GST-CLK1 129-end. The procedure, abridged:
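Human GST-CLK1 (129-end, 3 ng) reacted with substrate and 10 μM ATP for 1 h at 25° C in 40 mM Tris-HCl pH 7.4, 20 mM MgCl2, 0.5 mg/mL BSA, 50 μM DTT. ADP-Glo luminescence was normalised to solvent control; IC50 (nM) from 3 data sets.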
On the technique in general: In ADP-Glo the light output rises with the ADP produced.

Test [2] relates to IL-6. Description: Inhibition of LPS-induced IL-6 secretion of THP-1 monocytes (ELISA). It counts as cell-based, human. As to conditions: Homo sapiens, THP-1; compound 0.5 μM, LPS 500 ng/mL, 24 hours; read-out: THP1/IL6 (% inhib). The procedure, abridged:
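THP-1 monocytes grown 16 h at 37 °C, pretreated 1 h with compound at final 0.5 μM, then stimulated with LPS at final 500 ng/mL for 24 h. IL-6 and TNF-α in culture supernatant measured by ELISA (OD 450 nm).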

Test [3] has as its target T2, TTK (Homo sapiens, UniProt P33981).
T2 sequence (P33981 1-857): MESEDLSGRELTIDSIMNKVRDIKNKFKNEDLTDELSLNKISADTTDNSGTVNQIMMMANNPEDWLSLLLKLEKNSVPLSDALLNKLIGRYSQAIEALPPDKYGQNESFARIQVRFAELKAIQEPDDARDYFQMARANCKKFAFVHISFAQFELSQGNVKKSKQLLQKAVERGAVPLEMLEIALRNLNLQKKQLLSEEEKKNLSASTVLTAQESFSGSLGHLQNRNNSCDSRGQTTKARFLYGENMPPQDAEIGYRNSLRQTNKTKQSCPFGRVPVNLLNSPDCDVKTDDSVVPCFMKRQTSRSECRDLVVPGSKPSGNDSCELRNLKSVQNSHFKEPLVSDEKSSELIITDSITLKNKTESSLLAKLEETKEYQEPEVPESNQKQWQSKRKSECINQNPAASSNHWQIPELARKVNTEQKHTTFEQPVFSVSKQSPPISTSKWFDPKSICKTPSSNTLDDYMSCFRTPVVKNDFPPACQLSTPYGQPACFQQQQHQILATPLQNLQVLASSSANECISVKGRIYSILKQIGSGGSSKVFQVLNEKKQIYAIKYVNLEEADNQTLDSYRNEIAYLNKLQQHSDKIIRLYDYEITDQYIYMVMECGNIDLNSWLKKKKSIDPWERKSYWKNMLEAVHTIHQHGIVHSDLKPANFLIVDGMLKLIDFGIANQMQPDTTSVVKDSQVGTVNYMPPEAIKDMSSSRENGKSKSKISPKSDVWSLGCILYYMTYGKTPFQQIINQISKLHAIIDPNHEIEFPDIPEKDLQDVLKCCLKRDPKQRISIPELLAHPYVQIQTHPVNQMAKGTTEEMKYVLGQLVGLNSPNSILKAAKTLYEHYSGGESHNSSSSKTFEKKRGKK
Description: TTK enzyme inhibition, ADP-Glo kinase assay. It counts as biochemical. The following applies: ATP 5 μM. The arrangement: purchased SignalChem T20-10G. Put shortly:
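Purified human TTK (7.5 ng) was reacted with 5 μM ATP and 0.2 μg MBP substrate for 4 h at 25 °C in 40 mM Tris-HCl pH 7.4, 20 mM MgCl2, 0.1 mg/mL BSA, 50 μM DTT. ADP formation was read by ADP-Glo luminescence, and IC50 was taken relative to solvent control.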

Structures are written as SMILES. pIC50: −log10 of the molar value.

Usually pIC50 stands for −log10 of the IC50, conventionally taken in molar units. High values mean a low IC50, low ones a high IC50.

T1 sequence (P49759 129-484 limits assumed): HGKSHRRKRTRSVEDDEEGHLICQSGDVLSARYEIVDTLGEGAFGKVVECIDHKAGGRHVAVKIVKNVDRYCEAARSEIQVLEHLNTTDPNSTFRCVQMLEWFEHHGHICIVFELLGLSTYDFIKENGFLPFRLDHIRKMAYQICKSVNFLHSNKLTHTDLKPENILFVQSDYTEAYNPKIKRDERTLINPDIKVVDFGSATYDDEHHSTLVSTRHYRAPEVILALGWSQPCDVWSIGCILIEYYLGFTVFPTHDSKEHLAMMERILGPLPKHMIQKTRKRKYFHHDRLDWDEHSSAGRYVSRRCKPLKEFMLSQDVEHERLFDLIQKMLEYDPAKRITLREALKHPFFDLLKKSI

Regarding `CNc1nc(Nc2ccc(S(=O)(=O)N3CCC(N4CCOCC4)CC3)cc2OC)nc2[nH]cc(C(F)(F)F)c12` [Example 157, N^2-(2-methoxy-4-((4-morpholinopiperidin-1-yl)sulfonyl)phenyl)-N^4-methyl-5-(trifluoromethyl)-7H-pyrrolo[2,3-d]pyrimidine-2,4-diamine 2,2,2-trifluoroacetate], the pIC50 in test [1] and in test [3] was over 7.00 throughout. Also, the inhibition at 0.5 µM in test [2] was determined as 1.6%.

Take `CNc1nc(Nc2ccc(S(=O)(=O)N3CCC(N4CCOCC4)CC3)c3c2OCCO3)nc2[nH]cc(C(F)(F)F)c12` [Example 219, N^4-methyl-N^2-(8-((4-morpholinopiperidin-1-yl)sulfonyl)-2,3-dihydrobenzo[b][1,4]dioxin-5-yl)-5-(trifluoromethyl)-7H-pyrrolo[2,3-d]pyrimidine-2,4-diamine]: the pIC50 in test [1] and in test [3] was over 7.00 each time. For the same compound, the inhibition at 0.5 µM in test [2] was 10.9%.

With `COc1cc(P2(=O)CCN(C3CCOCC3)CC2)ccc1Nc1nc(NC2CC2)c2c(C(F)(F)F)c[nH]c2n1` [Example 435, 4-(4-((4-(cyclo-propylamino)-5-(trifluoromethyl)-7H-pyrrolo[2,3-d]pyrimidin-2-yl)amino)-3-methoxyphenyl)-1-(tetrahydro-2H-pyran-4-yl)-1,4-azaphosphinane 4-oxide], the pIC50 in test [1] and in test [3] was over 7.00 in each case. The inhibition at 0.5 µM in test [2] is 22.2%.

As to `COCCNc1nc(Nc2ccc(C(=O)N3CCC(N4CCOCC4)CC3)c3c2OCC3)nc2[nH]cc(C(F)(F)F)c12` [Example 443, (7-((4-((2-methoxyethyl)amino)-5-(trifluoromethyl)-7H-pyrrolo[2,3-d]pyrimidin-2-yl)amino)-2,3-dihydrobenzo-furan-4-yl)(4-morpho-linopiperidin-1-yl)methanone], the pIC50 in test [1] and in test [3] was over 7.00 in each case. In addition, the inhibition at 0.5 µM in test [2] is 4.6%.

With `CCNc1nc(Nc2ccc(C(=O)N3CCC(N4C[C@@H]5C[C@H]4CO5)CC3)c3c2OCC3)nc2[nH]cc(C(F)(F)F)c12` [Example 468], the pIC50 in test [1] and in test [3] was over 7.00 each time. Further, the inhibition at 0.5 µM in test [2] was determined as 22.4%.

For the compound `C=CCNc1nc(Nc2ccc(S(=O)(=O)N3CCC(N4CCOCC4)CC3)cc2OC)nc2[nH]cc(C#N)c12` [Example 361, 4-(allylamino)-2-((2-methoxy-4-((4-morpholino-piperidin-1-yl)sulfonyl)phenyl)amino)-7H-pyrrolo[2,3-d]pyrimidine-5-carbonitrile], the pIC50 in test [1] and in test [3] was over 7.00 in each case. Further, in test [2], the inhibition at 0.5 µM amounted to 21.7%.

For the origin of these results see patent publication US20230066011A1, “PYRROLOPYRIMIDINE DERIVATIVE, AND PHARMACEUTICAL COMPOSITION FOR PREVENTING OR TREATING PROTEIN KINASE-RELATED DISEASE COMPRISING SAME AS ACTIVE INGREDIENT” (VORONOI CO., LTD., priority 2019, published 2023).
